Source: patent publication US20100022491A1, “4-HYDROXY-2-OXO-2,3-DIHYDRO-1,3-BENZOTHIAZOL-7YL COMPOUNDS FOR MODULATION OF B2-ADRENORECEPTOR ACTIVITY” (ASTRAZENECA AB, priority 2006, published 2010)
Counter-ions that a name gives are not always drawn.

How the values were obtained:
[1] = target: T1, recombinant human adrenergic beta 1 receptors (Homo sapiens, UniProt P08588); test: Adrenergic β1 selectivity binding assay ([125I]-Iodocyanopindolol); settings: inhibition of [125I]-Iodocyanopindolol (0.036 nM) binding; read-out: β1 bind p IC50 (converted)
T1 construct: purchased Euroscreen
Procedure: Membranes containing recombinant human adrenergic beta 1 receptors were obtained from Euroscreen. These were diluted in Assay Buffer (50 mM HEPES, 1 mM EDTA, 120 mM NaCl, 0.1% gelatin, pH 7.4) to provide a final concentration of membranes that gave a clear window between maximum and minimum specific binding.
(§1) Assays were performed in U-bottomed 96-well polypropylene plates. 10 μL [^125I]-Iodocyanopindolol (0.036 nM final concentration) and 10 μL of test compound (10× final concentration) were added to each test well. For each assay plate 8 replicates were obtained for [^125I]-Iodocyanopindolol binding in the presence of 10 μL vehicle (10% (v/v) DMSO in Assay Buffer; defining maximum binding) or 10 μL Propranolol (10 μM final concentration; defining non-specific binding (NSB)). Membranes were then added to achieve a final volume of 100 μL. The plates were incubated for 2 hours at room temperature and then filtered onto PEI coated GF/B filter plates, pre-soaked for 1 hour in Assay Buffer, using a 96-well plate Tomtec cell harvester. Five washes with 250 μL wash buffer (50 mM HEPES, 1 mM EDTA, 120 mM NaCl, pH 7.4) were performed at 4° C. to remove unbound radioactivity. The plates were dried then sealed from underneath using Packard plate sealers and MicroScint-O (50 μL) was added to each well. The plates were sealed (TopSeal A) and filter-bound radioactivity was measured with a scintillation counter (TopCount, Packard BioScience) using a 3-minute counting protocol.
(§2) Total specific binding (B0) was determined by subtracting the mean NSB from the mean maximum binding. NSB values were also subtracted from values from all other wells. […] Data was fitted to a four parameter logistic equation to determine the compound potency, which was expressed as pIC50 (negative log molar concentration inducing 50% inhibition of [^125I]-Iodocyanopindolol binding).

[2] = target: T2, recombinant human α1D receptor (Homo sapiens, UniProt P25100); test: Adrenergic α1D selectivity binding assay ([3H]-prazosin); settings: inhibition of [3H]-prazosin (0.3 nM) binding, HEK293 membranes; read-out: α1 bind pIC50 (converted)
T2 construct: expressed in transfected cells; host or cells: HEK293
T2 sequence (P25100 1-572): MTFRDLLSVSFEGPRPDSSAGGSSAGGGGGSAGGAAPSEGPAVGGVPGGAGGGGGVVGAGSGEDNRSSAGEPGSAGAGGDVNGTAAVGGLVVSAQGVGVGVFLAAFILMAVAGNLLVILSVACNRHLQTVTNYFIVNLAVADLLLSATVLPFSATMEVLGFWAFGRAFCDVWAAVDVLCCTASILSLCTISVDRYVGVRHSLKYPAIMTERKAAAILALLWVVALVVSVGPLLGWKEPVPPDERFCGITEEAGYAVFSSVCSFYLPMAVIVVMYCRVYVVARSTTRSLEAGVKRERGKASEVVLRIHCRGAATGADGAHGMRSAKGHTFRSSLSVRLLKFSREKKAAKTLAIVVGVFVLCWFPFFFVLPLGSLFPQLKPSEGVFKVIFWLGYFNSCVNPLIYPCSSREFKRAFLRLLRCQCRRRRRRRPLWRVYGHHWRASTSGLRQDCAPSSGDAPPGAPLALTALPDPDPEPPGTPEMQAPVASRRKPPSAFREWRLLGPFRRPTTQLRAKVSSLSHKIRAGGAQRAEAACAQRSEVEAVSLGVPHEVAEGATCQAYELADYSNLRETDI
Procedure: Membranes were prepared from human embryonic kidney 293 (HEK293) cells expressing recombinant human α1D receptor. These were diluted in Assay Buffer (50 mM HEPES, 1 mM EDTA, 0.1% gelatin, pH 7.4) to provide a final concentration of membranes that gave a clear window between maximum and minimum specific binding.
as §1, with “[^3H]-prazosin (0.3” for “[^125I]-Iodocyanopindolol (0.036”, “[^3H]-prazosin” for “[^125I]-Iodocyanopindolol”, “BMY7378” for “Propranolol”, “EDTA,” for “EDTA, 120 mM NaCl,”
as §2, with “[^3H]-prazosin” for “[^125I]-Iodocyanopindolol”

T1 sequence (P08588 whole entry): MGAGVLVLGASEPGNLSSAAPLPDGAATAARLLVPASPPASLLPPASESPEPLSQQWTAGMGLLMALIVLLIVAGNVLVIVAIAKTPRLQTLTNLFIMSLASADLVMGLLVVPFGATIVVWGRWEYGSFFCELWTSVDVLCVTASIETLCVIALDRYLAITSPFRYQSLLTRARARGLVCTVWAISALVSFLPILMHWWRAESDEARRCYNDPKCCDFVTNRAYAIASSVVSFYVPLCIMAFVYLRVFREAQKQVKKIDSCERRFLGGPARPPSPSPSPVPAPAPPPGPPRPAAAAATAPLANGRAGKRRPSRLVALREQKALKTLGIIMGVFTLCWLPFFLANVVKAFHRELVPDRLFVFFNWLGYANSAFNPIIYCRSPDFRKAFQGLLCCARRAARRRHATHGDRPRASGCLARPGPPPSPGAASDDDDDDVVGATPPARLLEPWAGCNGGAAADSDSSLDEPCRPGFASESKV

SMILES | IC50 [1] [µM] | IC50 [2] [µM]
CCCC[C@@H](C)N(CCNCCc1ccc(O)c2[nH]c(=O)sc12)C(=O)CCNCCc1ccccc1 [Example 101, N-(2-{[2-(4-Hydroxy-2-oxo-2,3-dihydro-1,3-benzothiazol-7-yl)ethyl]amino}ethyl)-N-[(1R)-1-methylpentyl]-N^3-(2-phenylethyl)-β-alaninamide bis-trifluoroacetic acid salt] | 3.98 | 0.0501
O=C(CCNCCc1ccc(Cl)s1)N(CCNCCc1ccc(O)c2[nH]c(=O)sc12)C1CCCCC1 [Example 72, N^3-[2-(5-Chloro-2-thienyl)ethyl]-N^1-cyclohexyl-N^1-(2-{[2-(4-hydroxy-2-oxo-2,3-dihydro-1,3-benzothiazol-7-yl)ethyl]amino}ethyl)-β-alaninamide bis-trifluoroacetic acid salt] | 3.16 | 0.398
O=C(NCc1ccccc1)c1ccc(CCNCCC(=O)N(CCNCCc2ccc(O)c3[nH]c(=O)sc23)C2CCCCCC2)cc1 [Example 100, N-Benzyl-4-[2-({3-[cycloheptyl(2-{[2-(4-hydroxy-2-oxo-2,3-dihydro-1,3-benzothiazol-7-yl)ethyl]amino}ethyl)amino]-3-oxopropyl}amino)ethyl]benzamide bis-trifluoroacetic acid salt] | 1.26 | 0.251
CC(C)(C)CN(CCNCCc1ccc(O)c2[nH]c(=O)sc12)C(=O)CCNCCc1cccc(F)c1 [Example 44, N^1-(2,2-Dimethylpropyl)-N^3-[2-(3-fluorophenyl)ethyl]-N^1-(2-{[2-(4-hydroxy-2-oxo-2,3-dihydro-1,3-benzothiazol-7-yl)ethyl]amino}ethyl)-β-alaninamide bis-trifluoroacetic acid salt] | 5.01 | 0.316
O=C(CCNCCc1ccc(F)cc1)N(CCNCCc1ccc(O)c2[nH]c(=O)sc12)C1CCCCC1 [Example 16, N-Cyclohexyl-N^3-[2-(4-fluorophenyl)ethyl]-N-(2-{[2-(4-hydroxy-2-oxo-2,3-dihydro-1,3-benzothiazol-7-yl)ethyl]amino}ethyl)-β-alaninamide bis-trifluoroacetic acid salt] | 7.94 | 0.1
CC(CN(C(=O)CCNCCc1ccccc1)C1CCCCC1)NCCc1ccc(O)c2[nH]c(=O)sc12 (stereo not drawn) [Example 105, N-Cyclohexyl-N-(2-{[2-(4-hydroxy-2-oxo-2,3-dihydro-1,3-benzothiazol-7-yl)ethyl]amino}propyl)-N^3-(2-phenylethyl)-β-alaninamide bis-trifluoroacetic acid salt] | 1.58 | 0.0794
O=C(CCNCCc1ccccc1)N(CCNCCc1ccc(O)c2[nH]c(=O)sc12)CC12CC3CC(CC(C3)C1)C2 [Example 59, N^1-(1-Adamantylmethyl)-N^1-(2-{[2-(4-hydroxy-2-oxo-2,3-dihydro-1,3-benzothiazol-7-yl)ethyl]amino}ethyl)-N^3-(2-phenylethyl)-β-alaninamide bis-trifluoroacetic acid salt] | 0.794 | 0.1
O=C(CCNCCc1cccc(F)c1)N(CCNCCc1ccc(O)c2[nH]c(=O)sc12)C1CCCCC1 [Example 96, N-Cyclohexyl-N^3-[2-(3-fluorophenyl)ethyl]-N-(2-{[2-(4-hydroxy-2-oxo-2,3-dihydro-1,3-benzothiazol-7-yl)ethyl]amino}ethyl)-β-alaninamide dihydrobromide salt] | 6.31 | 0.2
O=C(CCNCCc1ccc(Cl)cc1)N(CCNCCc1ccc(O)c2[nH]c(=O)sc12)C1CCCCC1 [Example 13, N^3-[2-(4-Chlorophenyl)ethyl]-N-cyclohexyl-N-(2-{[2-(4-hydroxy-2-oxo-2,3-dihydro-1,3-benzothiazol-7-yl)ethyl]amino}ethyl)-β-alaninamide bis-trifluoroacetic acid salt] | 3.16 | 0.316
O=C(CCNCCc1ccccc1)N(CCNCCc1ccc(O)c2[nH]c(=O)sc12)C1CCCC1 [Example 2, N-Cyclopentyl-N-(2-{[2-(4-hydroxy-2-oxo-2,3-dihydro-1,3-benzothiazol-7-yl)ethyl]amino}ethyl)-N^3-(2-phenylethyl)-β-alaninamide bis-trifluoroacetic acid salt] | 5.01 | 0.126
CCCC(CCC)N(CCNCCc1ccc(O)c2[nH]c(=O)sc12)C(=O)CCNCCc1ccc(F)cc1 [Example 64, N^3-[2-(4-Fluorophenyl)ethyl]-N^1-(2-{[2-(4-hydroxy-2-oxo-2,3-dihydro-1,3-benzothiazol-7-yl)ethyl]amino}ethyl)-N^1-(1-propylbutyl)-β-alaninamide bis-trifluoroacetic acid salt] | 6.31 | 0.0794
O=C(CCNCCc1ccc(Cl)cc1)N(CCNCCc1ccc(O)c2[nH]c(=O)sc12)C1CCCCCC1 [Example 51, N^3-[2-(4-Chlorophenyl)ethyl]-N^1-cycloheptyl-N^1-(2-{[2-(4-hydroxy-2-oxo-2,3-dihydro-1,3-benzothiazol-7-yl)ethyl]amino}ethyl)-β-alaninamide bis-trifluoroacetic acid salt] | 2.51 | 0.316
CC(C)(CNCCC(=O)N(CCNCCc1ccc(O)c2[nH]c(=O)sc12)C1CCCC1)c1ccccc1 [Example 32, N-cyclopentyl-N-(2-{[2-(4-hydroxy-2-oxo-2,3-dihydro-1,3-benzothiazol-7-yl)ethyl]amino}ethyl)-N^3-(2-methyl-2-phenylpropyl)-β-alaninamide bis-trifluoroacetic acid salt] | 7.94 | 0.398
O=C(CCNCCc1c(F)cccc1F)N(CCNCCc1ccc(O)c2[nH]c(=O)sc12)C1CCCCCC1 [Example 84, N^1-Cycloheptyl-N^3-[2-(2,6-difluorophenyl)ethyl]-N^1-(2-{[2-(4-hydroxy-2-oxo-2,3-dihydro-1,3-benzothiazol-7-yl)ethyl]amino}ethyl)-β-alaninamide bis-trifluoroacetic acid salt] | 1 | 0.1
O=C(CCNCCc1ccc(O)cc1)N(CCNCCc1ccc(O)c2[nH]c(=O)sc12)C1CCCCC1 [Example 34, N-Cyclohexyl-N-(2-{[2-(4-hydroxy-2-oxo-2,3-dihydro-1,3-benzothiazol-7-yl)ethyl]amino}ethyl)-N^3-[2-(4-hydroxyphenyl)ethyl]-β-alaninamide bis-trifluoroacetic acid salt] | 7.94 | 0.2
O=C(CCNCCc1cccc(OC(F)F)c1)N(CCNCCc1ccc(O)c2[nH]c(=O)sc12)C1CCCCCC1 [Example 54, N-Cycloheptyl-N^3-{2-[3-(difluoromethoxy)phenyl]ethyl}-N^1-(2-{[2-(4-hydroxy-2-oxo-2,3-dihydro-1,3-benzothiazol-7-yl)ethyl]amino}ethyl)-β-alaninamide bis-trifluoroacetic acid salt] | 2.51 | 0.316
